Results: ChEMBL document CHEMBL4251708, “Synthesis and Biological Screening of Pyrano[3,2-c]quinoline Analogues as Anti-inflammatory and Anticancer Agents” (ACS Med Chem Lett, 2018)
The source made the active and inactive calls. No cut-off for these calls is given here.

How the values were obtained:
ACHN [1] = assay: Antiproliferative activity against human ACHN cells after 48 hrs by propidium iodide staining based fluorometry; type: functional, cell-based
[2] = system: MDA-MB-231 (Homo sapiens); assay: Antiproliferative activity against human MDA-MB-231 cells at 1 uM relative to control; details: mda-mb-231, 1 µM
THP-1 (Homo sapiens) [3] = assay: Antiinflammatory activity in human THP1 cells assessed as inhibition of IL-6 production at 10 uM relative to control; design: scale not given: the % may be the effect or the level left
ACHN (Homo sapiens) [4] = assay: Antiproliferative activity against human ACHN cells at 10 uM relative to control
Calu-1 [5] = assay: Antiproliferative activity against human Calu1 cells after 48 hrs by propidium iodide staining based fluorometry; type: functional, cell-based; details: Calu-1, 48 h
THP-1 [6] = assay: Antiinflammatory activity in PMA-differentiated human THP1 cells assessed as inhibition of LPS-induced IL-6 production after 24 hrs by ELISA; type: functional, cell-based; details: THP-1, 24 h
THP-1 [7] = assay: Cytotoxicity against PMA-differentiated human THP1 cells assessed as reduction in cell viability after 4.5 hrs by MTS assay; type: cell-based; details: THP-1, 4.5 h
HCT-116 [8] = assay: Antiproliferative activity against human HCT116 cells after 48 hrs by propidium iodide staining based fluorometry; type: functional, cell-based; details: HCT-116, 48 h
PBMC = assay: Antiinflammatory activity in human PBMC assessed as inhibition of LPS-induced TNF-alpha production incubated for 30 mins followed by LPS addition measured after 4.5 hrs by ELISA; type: functional, cell-based
THP-1 [9] = assay: Antiinflammatory activity in PMA-differentiated human THP1 cells assessed as inhibition of LPS-induced TNF-alpha production at 1 uM after 24 hrs by ELISA relative to control; type: functional; details: THP-1, 24 h
[10] = system: MDA-MB-231 (Homo sapiens); assay: Antiproliferative activity against human MDA-MB-231 cells at 10 uM relative to control
THP-1 [11] = assay: Antiinflammatory activity in PMA-differentiated human THP1 cells assessed as inhibition of LPS-induced TNF-alpha production at 10 uM after 24 hrs by ELISA relative to control; type: functional; details: THP-1, 24 h
THP-1 [12] = assay: Antiinflammatory activity in PMA-differentiated human THP1 cells assessed as inhibition of LPS-induced IL-6 production at 1 uM after 24 hrs by ELISA relative to control; type: functional; details: THP-1, 24 h
THP-1 [13] = assay: Antiinflammatory activity in PMA-differentiated human THP1 cells assessed as inhibition of LPS-induced TNF-alpha production after 24 hrs by ELISA; type: functional, cell-based; details: THP-1, 24 h
ACHN (Homo sapiens) [14] = assay: Antiproliferative activity against human ACHN cells at 1 uM relative to control
NCI-H460 [15] = assay: Antiproliferative activity against human H460 cells after 48 hrs by propidium iodide staining based fluorometry; type: functional, cell-based; details: NCI-H460, 48 h
[16] = system: MIA PaCa-2 (Homo sapiens); assay: Antiproliferative activity against human MIA PaCa-2 cells at 1 uM relative to control
PANC-1 [17] = assay: Antiproliferative activity against human PANC1 cells after 48 hrs by propidium iodide staining based fluorometry; type: functional, cell-based; details: PANC-1, 48 h
THP-1 [18] = assay: Antiinflammatory activity in PMA-differentiated human THP1 cells assessed as inhibition of LPS-induced IL-6 production at 10 uM after 24 hrs by ELISA relative to control; type: functional; details: THP-1, 24 h
THP-1 (Homo sapiens) [19] = assay: Antiinflammatory activity in human THP1 cells assessed as inhibition of TNF-alpha production at 10 uM relative to control; design: scale not given: the % may be the effect or the level left
MIA PaCa-2 = assay: Antiproliferative activity against human MIAPaCa2 cells at 10 uM relative to control; type: functional
A-549 (Homo sapiens) = assay: Antiproliferative activity against human A-549 cells at 10 uM relative to control
NCI-H460 [20] = assay: Antiproliferative activity against human H460 cells at 500 nM after 48 hrs by propidium iodide staining based fluorometry relative to control; type: functional
HCT-116 [21] = assay: Antiproliferative activity against human HCT116 cells at 500 nM after 48 hrs by propidium iodide staining based fluorometry relative to control; type: functional
Calu-1 [22] = assay: Antiproliferative activity against human Calu1 cells at 500 nM after 48 hrs by propidium iodide staining based fluorometry relative to control; type: functional
PANC-1 [23] = assay: Antiproliferative activity against human PANC1 cells at 500 nM after 48 hrs by propidium iodide staining based fluorometry relative to control; type: functional
ACHN [24] = assay: Antiproliferative activity against human ACHN cells at 500 nM after 48 hrs by propidium iodide staining based fluorometry relative to control; type: functional
ACHN [25] = assay: Antiproliferative activity against human ACHN cells at 10 uM relative to control; type: functional
HCT-116 [26] = assay: Antiproliferative activity against human HCT116 cells at 700 nM after 48 hrs by propidium iodide staining based fluorometry relative to control; type: functional
NCI-H460 [27] = assay: Antiproliferative activity against human H460 cells at 700 nM after 48 hrs by propidium iodide staining based fluorometry relative to control; type: functional
Calu-1 [28] = assay: Antiproliferative activity against human Calu1 cells at 700 nM after 48 hrs by propidium iodide staining based fluorometry relative to control; type: functional
ACHN [29] = assay: Antiproliferative activity against human ACHN cells at 700 nM after 48 hrs by propidium iodide staining based fluorometry relative to control; type: functional
PANC-1 [30] = assay: Antiproliferative activity against human PANC1 cells at 700 nM after 48 hrs by propidium iodide staining based fluorometry relative to control; type: functional

Row | Compound | IC50 (ACHN [1]) [µM] | Activity [2] [%] | Activity (THP-1 (Homo sapiens) [3]) [%] | Activity (ACHN (Homo sapiens) [4]) [%] | IC50 (Calu-1 [5]) [µM] | IC50 (THP-1 [6]) [µM] | IC50 (THP-1 [7]) [µM] | IC50 (HCT-116 [8]) [µM] | inhibition at 1 µM (THP-1 [9]) [%] | inhibition at 10 µM (THP-1 [11]) [%] | inhibition at 1 µM (THP-1 [12]) [%] | IC50 (THP-1 [13]) [µM] | Activity (ACHN (Homo sapiens) [14]) [%] | IC50 (NCI-H460 [15]) [µM] | Activity [16] [%] | IC50 (PANC-1 [17]) [µM] | inhibition at 10 µM (THP-1 [18]) [%] | Activity (THP-1 (Homo sapiens) [19]) [%] | Activity (MIA PaCa-2) [%] | Activity (A-549 (Homo sapiens)) [%] | also measured
1 | Cn1c(=O)c2c(c3ccccc31)OC(N)=C(C#N)C2c1cccc([N+](=O)[O-])c1 (centres undefined) | 1.6 | 53 | 79 | 83 | 1.1 | 0.25 | > 10 | 6.6 | 11 | 0 | 0 | 0.3 | 79 | 1.9 | 65 | 2.5 | 79 | 43 | 70 | 71 | IC50 (PBMC): 0.2 µM; inhibition (PBMC): Dose-dependent effect; Activity [10]: 65%
2 | Nc1ccn([C@@H]2O[C@H](CO)[C@@H](O)C2(F)F)c(=O)n1 [GEMCITABINE] | – | – | – | – | – | – | – | – | – | – | – | – | – | – | – | – | – | – | – | – | Activity (NCI-H460 [20]): 71%; Activity (HCT-116 [21]): 73%; Activity (Calu-1 [22]): 79%; Activity (PANC-1 [23]): 74%; Activity (ACHN [24]): 73%
3 | Cn1c(=O)c2c(c3ccccc31)OC(N)=C(C#N)C2c1ccccc1 (centres undefined) | 2.8 | 0 | 66 | – | 1.2 | < 0.03 | > 10 | 1 | 0 | 0 | 0 | 4.9 | 61 | 1.3 | 45 | 1.5 | 66 | 0 | 41 | – | inhibition (PBMC): inactive; Activity (ACHN [25]): 82%
4 | Cn1c(=O)c2c(c3ccccc31)OC(N)=C(C#N)C2c1ccc(F)cc1 (centres undefined) | – | 0 | 66 | 50 | – | – | – | – | 0 | 0 | 0 | – | 27 | – | 16 | – | 66 | 0 | 45 | 22 | –
5 | Cn1c(=O)c2c(c3ccccc31)OC(N)=C(C#N)C2c1ccccc1[N+](=O)[O-] (centres undefined) | – | 0 | 78 | 68 | – | – | – | – | 0 | 0 | 0 | – | 49 | – | 35 | – | 78 | 36 | 51 | 36 | –
6 | CN1CC[C@H](c2c(O)cc(O)c3c(=O)cc(-c4ccccc4Cl)oc23)[C@H](O)C1 [ALVOCIDIB] | – | – | – | – | – | – | – | – | – | – | – | – | – | – | – | – | – | – | – | – | Activity (HCT-116 [26]): 71%; Activity (NCI-H460 [27]): 88%; Activity (Calu-1 [28]): 74%; Activity (ACHN [29]): 71%; Activity (PANC-1 [30]): 78%
7 | Cn1c(=O)c2c(c3ccccc31)OC(N)=C(C#N)C2c1cccc(Br)c1 (centres undefined) | 0.9 | 45 | 82 | 75 | 0.8 | 0.08 | 10 | 0.9 | 2 | 0 | 0 | 0.5 | 73 | 0.8 | 61 | 0.8 | 82 | 38 | 70 | 78 | IC50 (PBMC): 0.5 µM; Activity [10]: 54%
